Among the data in PubChem BioAssay (NCI) are GI50 and TGI values, retold here.

Assay in all cases: growth of human tumour cells (NCI), 48 h
For assay [1], the system named is ACHN renal.
Assay [2] concerns MDA-MB-435.
In assay [3] the test system is NCI-H23 lung.
The test system of assay [4] is OVCAR-3 ovarian.
For assay [5], the system named is SK-OV-3 ovarian.
Assay [6] deals with SNB-75 CNS.
In assay [7] the test system is TK-10 renal.
For assay [8], the system named is UO-31 renal.
Assay [9] relates to K-562 leukemia.
The test system of assay [10] is SR leukemia.

SMILES strings stand for the structures.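 Growth conditions: 96-well plates. Treatment: test compound, 48 hours, 5 concentrations. Analysis: linear interpolation between bracketing concentrations; unreached endpoints set to highest concentration. Here, GI50 denotes the concentration required for 50% inhibition of growth. The concentration for full growth arrest is given as TGI.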 Some results are limits rather than exact numbers.

With `CN(C)c1ccc(N)cc1`, the GI50 was 4.38 µM in [1]; 3.4 µM in assay [2]; 3.14 µM in assay [3]; 2.14 µM in assay [4]; 13.1 µM in [5]; 3.79 µM in [6]. The GI50 in assay [7] is 3.05 µM; in assay [8], 3.97 µM. The TGI was 18 µM in assay [1]; 15.2 µM in [2]; 14.1 µM in assay [3]; 6.12 µM in assay [4]; 58 µM in assay [5]; 17.3 µM in assay [6]. Besides, the TGI in assay [7] worked out at 18.5 µM; in [8], 16.3 µM.

Regarding `CCOC1=NC(=O)CC(c2ccccc2)S1` (centres undefined), the TGI in [1], in assay [9], in assay [4] and in [8] was more than 100 µM throughout.

Take `O=C(O)CN(c1ccccc1)S(=O)(=O)c1ccccc1[N+](=O)[O-]`: the TGI in assay [1], in [3], in assay [4], in assay [5], in assay [6] and in assay [7] was more than 100 µM in each case. Besides, the TGI in assay [8] is more than 100 µM.

Consider `O=c1cccccc1NCCCNc1cccccc1=O`, for which the TGI in [1], in [9], in assay [3], in assay [4], in assay [5] and in assay [10] was more than 100 µM each time. The compound also had a TGI in [8] of more than 100 µM.

On to `O=C1NC(=O)c2ccc([N+](=O)[O-])c3cccc1c23`, for which the TGI in assay [1] is 33.7 µM; in assay [9], 32.7 µM; in assay [2], 29.9 µM; in assay [3], 33.7 µM; in assay [5], 50.9 µM; in [6] it was 85.9 µM. Moreover, the values for the TGI in [7] and in assay [8] were 45.8 µM and 29.8 µM, respectively.

In the case of `COc1cc(NC(=O)c2cc(O)c(CC=C(C)C)c(O)c2)cc2c1O[C@]1(C)CC[C@@H](O)C(C)(C)[C@H]1C2`, the GI50 in assay [1] was 5.38 µM; in [9] it was 3.58 µM; in assay [2], 3.73 µM; in [3] it was 3.99 µM; in assay [4], 5.93 µM; in [5], 4.72 µM. Further, the GI50 in assay [6] was 0.772 µM; in assay [7], 9.59 µM; in assay [8], 2.42 µM. The TGI was determined as 48.7 µM in assay [1]; 34.1 µM in [9]; 23.7 µM in [2]; 25.7 µM in assay [3]; 83.5 µM in assay [4]; 28.8 µM in [5]. Besides, the TGI in [6] was found to be 25.9 µM; in assay [7], 55.6 µM; in assay [8], 8.18 µM.

On to `COc1ccc(C(=O)COc2cccc(/C=C3\COc4ccc5ccccc5c4C3=O)c2)cc1`, for which the GI50 was 80.7 µM in assay [1]; 3.63 µM in assay [9]; 4.08 µM in assay [2]; 5.17 µM in [3]; 3.12 µM in assay [4]; 82.2 µM in [5]. The GI50 in assay [6] was 2.39 µM; in [7], 24.2 µM; in assay [8] it was 20.4 µM. Besides, the TGI is more than 100 µM in assay [1]; 66.7 µM in assay [9]; 41.3 µM in assay [2]; more than 100 µM in assay [3]; 11.5 µM in [4]; more than 100 µM in assay [5]. Moreover, the TGI was 11.6 µM in assay [6], more than 100 µM in assay [7] and more than 100 µM in assay [8].

For `CN(C)CCCn1c2c(c3ccccc3c1=O)C(=O)c1ccccc1-2`, the GI50 in assay [1] was 0.507 µM; in assay [9], 1.9 µM; in [2], 2.82 µM; in assay [3] it was 1.75 µM; in assay [4] it was 1.67 µM; in [5] it was 4.14 µM. Besides, the GI50 in [6] is 14.2 µM; in assay [7], 1.67 µM; in assay [8] it was 2.5 µM. Besides, the TGI in [1] turned out to be 2.15 µM; in [9], 8.01 µM; in assay [2] it was 12 µM; in assay [3] it was 8.39 µM; in assay [4], 6.79 µM; in [5] it was 73.8 µM. The TGI was found to be 33.1 µM in assay [6], 11.3 µM in assay [7] and 23.5 µM in assay [8].

Regarding `Cc1ccc(Nc2nc3c(s2)C(=O)c2ccccc2C3=O)c(C)c1`, the TGI in assay [1] is 30.6 µM; in assay [9], 43 µM; in [3], 25.6 µM; in assay [4] it was 27.5 µM; in assay [5] it was 62.5 µM; in assay [6] it was 30.1 µM. Also, the TGI in [7] was 36.6 µM; in assay [8] it was 27.3 µM.

With `O=C(CCl)Nc1ccc(Cl)cc1`, the GI50 in assay [1] is 3.13 µM; in [2], 4.4 µM; in assay [3], 3.29 µM; in [4] it was 1.88 µM; in [5] it was 6.93 µM; in [6] it was 7.43 µM. Besides, the GI50 was 2.3 µM in assay [7] and 8.07 µM in [8]. For the same compound, the TGI in [1] was 10.6 µM; in assay [2], 20.4 µM; in [3] it was 14.3 µM; in [4], 3.62 µM; in assay [5] it was 23 µM; in [6], 21.1 µM. Further, the values for the TGI in assay [7] and in [8] were 5.75 µM and 24.1 µM, respectively.

Consider `NC(N)=NCCCn1c2c(c3ccccc3c1=O)C(=O)c1ccccc1-2`, for which the GI50 is 18 µM in [1]; 11.6 µM in assay [9]; 25.9 µM in assay [2]; 18.3 µM in assay [4]; 34.2 µM in [5]; 5.69 µM in assay [6]. The GI50 in [7] is 29.5 µM. Further, the TGI was 35.2 µM in assay [1]; 29.5 µM in assay [9]; 71.5 µM in assay [2]; 45.4 µM in assay [4]; more than 100 µM in assay [5]; 26.4 µM in assay [6]. For the same compound, the TGI in [7] was found to be 98.3 µM.
